SMILES strings stand for the structures.

The test system of test [1] is Mus musculus. Description: Compound was evaluated in vivo for the antitumor activity against murine sarcoma 180 cell lines at the specified dose 4.0 mg/kg. Type of test: functional.
Test [2] concerns Mus musculus. Description: Compound was evaluated in vivo for the antitumor activity against murine sarcoma 180 cell lines at the specified dose 16 mg/kg. In kind it is functional.
Test [3] concerns Mus musculus. Description: Compound was evaluated in vivo for the antitumor activity against murine sarcoma 180 cell lines at the specified dose 8.0 mg/kg. In kind it is functional.
The next test relates to HeLa. The test is described as follows: In vitro cytotoxicity against HeLaS3 cell lines. The conditions noted are these: Homo sapiens. In kind it is functional, cell-based.
The subject of test [4] is Mus musculus. The test is described as follows: Compound was evaluated in vivo for the antitumor activity against murine sarcoma 180 cell lines at the specified dose 0.25 mg/kg. Type of test: functional.
For test [5], the system named is Mus musculus. Description: Compound was evaluated in vivo for the antitumor activity against murine sarcoma 180 cell lines at the specified dose 1 mg/kg. Type of test: functional.
Test [6] concerns Mus musculus. Description: Compound was evaluated in vivo for the antitumor activity against murine sarcoma 180 cell lines at the specified dose 0.5 mg/kg. In kind it is functional.
For test [7], the system named is Mus musculus. The test is described as follows: Compound was evaluated in vivo for the antitumor activity against murine sarcoma 180 cell lines at the specified dose 2.0 mg/kg. Type of test: functional.
The subject of test [8] is Mus musculus. The test is described as follows: Compound was evaluated in vivo for the antitumor activity against murine sarcoma 180 cell lines at the specified dose 1.0 mg/kg. In kind it is functional.

What is called IC50 is the concentration at which inhibition is half-maximal. A higher IC50 goes with weaker potency in that assay. `COC(=O)[C@]1(C)Nc2c(OC(=O)N(C)C)cc3c(c2C1=O)[C@H](CBr)CN3C(=O)/C=C/c1ccc(OC)cc1`: the T/C in the test on Mus musculus [1] was 0.19; in the test on Mus musculus [2] it was 0.057; in the test on Mus musculus [3], 0.14. Besides, the IC50 with HeLa stood at 510 nM.

`COC(=O)[C@]1(C)Nc2c(O)cc3c(c2C1=O)[C@H](CBr)CN3C(=O)c1cc2cc(OC)c(OC)c(OC)c2[nH]1`: the T/C in the test on Mus musculus [4] worked out at 0.024. Further, the IC50 with HeLa was 0.028 nM.

As for `COC(=O)[C@@]1(C)C(=O)c2c3c(cc(O)c2N1C(=O)N(C)C)N(C(=O)c1cc2cc(OC)c(OC)c(OC)c2[nH]1)C[C@H]3CBr`, the T/C with Mus musculus [5] is listed as 0.087; in the test with Mus musculus [4], 0.31; in the test with Mus musculus [6], 0.13. Further, the midpoint of inhibition in the test with HeLa, the IC50, lay at 56 nM.

In the case of `COC(=O)Nc1ccc2[nH]c(C(=O)N3C[C@@H](CBr)c4c3cc(OC(=O)N(C)C)c3c4C(=O)[C@](C)(C(=O)OC)N3)cc2c1`, the T/C in the test on Mus musculus [1] was 0.13; in the test on Mus musculus [7], 0.31. Also, the IC50 with HeLa worked out at 584 nM.

As to `CNc1ccc(/C=C/C(=O)N2C[C@@H](CBr)c3c2cc(OC(=O)N(C)C)c2c3C(=O)[C@](C)(C(=O)OC)N2)cc1`, the T/C came to 0.18 with Mus musculus [1], 0.055 in the test with Mus musculus [2] and 0.1 in the test with Mus musculus [3]. Also, 720 nM corresponded to half-maximal inhibition in the test with HeLa (IC50).

For `COC(=O)[C@]1(C)Nc2c(OC(=O)N(C)C)cc3c(c2C1=O)[C@H](CBr)CN3C(=O)c1cc2cc(OC)ccc2o1`, the T/C in the test on Mus musculus [8] was 0.13; in the test on Mus musculus [6], 0.26. Moreover, in the test on HeLa, the IC50 came out at 400 nM.

Turning to `COC(=O)[C@]1(C)Nc2c(OC(=O)N(C)C)cc3c(c2C1=O)[C@H](CBr)CN3C(=O)COc1ccc(OC)cc1`, the T/C came to 0.24 in the test on Mus musculus [1], 0.076 in the test with Mus musculus [2] and 0.16 with Mus musculus [3]. Besides, the IC50 in the test with HeLa worked out at 98 nM.

For the origin of these results see ChEMBL document CHEMBL1129088, “Synthesis and antitumor activity of novel duocarmycin derivatives” (Bioorg Med Chem Lett, 1996).
